Measurements: patent publication US7470831B1, “Genetic method” (Syngenta Limited, priority 1997, dated 2008)
Like-named read-outs stand apart in the source and are kept apart here.

What was measured:
[1] = test system: CaMV 35S promoter (p35S:CAT transgenic tobacco line)
Experimental: (§1) A selected seedling was grown to maturity to produce a homozygous line. Seedlings of this plant were tested for CAT protein in comparison to seedlings of a similar plant transformed with a construct which expressed CAT from the constitutive high activity CaMV 35S promoter (Table 1).
(§2) Individual seedlings from a homozygous transgenic tobacco line carrying the CAT gene expressed from the alcA promoter were compared with those from a similar line transformed with p35S:CAT. […] Induction was achieved by the addition of 0.1% ethanol to the growth medium for 120 h. The induction medium was replaced at 58 h to maintain ethanol concentrations. One leaf was taken prior to induction, and one leaf after induction. CAT ELISA (Boehringer Mannheim) was performed on crude cell extracts; total protein was determined as described previously (Bradford, Anal Biochem 72: 243 (1976). All values are ng CAT protein per mg total protein, and represent the mean of nine individual replicates±one standard deviation.

[2] = test system: alcA promoter (p35S:alcR / palcA:CAT transgenic tobacco line)
Experimental: as §1, §2

[3] = test system: palc:Inv transgenic tobacco plants; settings: 1% ethanol root drench
Experimental: (§3) Phenotypic modification started 72 hours after ethanol induction and was strongest after 96 hours. The final phenotype was identical to the previously published results using the 35S CaMV promoter to drive the expression of cytosolic yeast invertase (Sonnewald et al Plant J. 1, 95 (1991)). Development of this phenotype followed maximal invertase activity and was most severe in transformant 28. Photosynthesis fluorescence measurements were used to monitor changes of quantum yield (Schreiber et al, in Ecophysiology of Photosynthesis Vol. 100, Schuize and Caldwell, Eds (Springer Verlag, Berlin, 1994), pp 49-70.) of all three transformant lines in vivo throughout the induction experiment.
Fluorescence measurements were used to monitor changes in photosynthetic parameters during induction of invertase activity using the PAM-2000 instrument (Walz, Effeltrich, Germany). Quantum use efficiency (quantum yield) of photosystem II (PSII) was measured by applying a saturating light beam on light adapted leaves of wildtype and transformed plants (palc:Inv). Before each measurement, it was verified that the saturating pulse had reached a plateau to allow an accurate determination of Fm′. The intensities of the measuring and saturating light beam were adjusted to reach a FO′ value close to 0.4. Measurements were conducted on different leaves having reached 8% (A), 15% (B), or 45% (C) of maximal leaf area of five plants of each genotype at the indicated time points.
Quantum yield of three succeeding light adapted leaves (leaf A-C) starting from the top of the plant was measured using a PAM-2000 instrument at the time points indicated. Values given are the means +−SE (n=5). For plants of line 28, quantum yield was reduced by 23% (p<0.05) and 27% (p<0.05) and for plants of line 10 only by 6% and 17% (p<0.05), respectively.

[4] = test system: palcA:cyInv transgenic tobacco plants
Experimental: as §3

`CCO` [Ethanol, ethanol] was tested, and the “reduction in CAT protein levels relative to the untreated control” value ([1]; ethanol-treated p35S:CAT seedlings) was 29%, the CAT protein level ([1]; p35S:CAT seedlings, 0.1% ethanol in growth medium for 120 h, mean of nine replicates ± one SD) was 55.46 ± 10.85 ng CAT protein per mg total protein and the “CAT activity of induced palc:CAT seedlings relative to ethanol-treated p35S:CAT seedlings” value ([2]; ethanol-induced palc:CAT vs ethanol-treated p35S:CAT) was 55%. The “CAT activity of induced palc:CAT seedlings relative to untreated p35S:CAT seedlings” value ([2]; ethanol-induced palc:CAT vs untreated p35S:CAT) was 39%, the CAT protein level ([2]; homozygous palcA:CAT seedlings, 0.1% ethanol in growth medium for 120 h, mean of nine replicates ± one SD) was 30.37 ± 3.91 ng CAT protein per mg total protein and the “reduction of quantum yield” value ([3]; line 10, leaf B (15% of maximal leaf area)) was 6%. For the same compound, the “reduction of quantum yield” value ([3]; line 10, leaf C (45% of maximal leaf area), p<0.05) was 17%, the “reduction of quantum yield” value ([3]; line 28, leaf B (15% of maximal leaf area), p<0.05) was 23% and the “reduction of quantum yield” value ([3]; line 28, leaf C (45% of maximal leaf area), p<0.05) was 27%. For the same compound, the “invertase activity in transgenic plants at two ethanol concentrations” value ([4]; 5% vs 1% ethanol (FIG. 3)) was “dose-dependent”, the “time after first addition of ethanol at which elevated invertase activity was measurable” value ([4]; lines 10, 27 and 28, root drench 100 ml 1% ethanol (v/v)) was 6 h and the “time after initial root drenching at which invertase activity reached a plateau” value ([4]; lines 10 and 27, root drench 100 ml 1% ethanol, repeated at 48 and 72 hours) was 96 h. The “start of phenotypic modification after ethanol induction” value ([4]; palcA:cyInv lines, strongest after 96 hours) was 72 h.
